According to patent publication US20030055104A1, “Method, composition and kit to remove lice ova from the hair” (priority 2000, published 2003):

How the values were obtained:
[1] = test system: nit attached to human hair strand; test: Force required to dislodge a nit from a treated hair strand with a nit comb (INSTRON 1123 / CORREX Gram Gage); set-up: species or system lice; conditions: in vitro studies
Experimental: FIG. 1 is a diagram of the test setup whereby the force required to dislodge a nit from a human hair strand with a nit comb was measured.
FIG. 2 is a view showing the positioning of the nit and hair strand between the teeth of the comb shown in the test setup of FIG. 1.
The nit-loosening effectiveness of the novel compositions and the methods of treatment employing them were tested extensively using an INSTRON® 1123 Universal Testing Instrument (Instron Corp. Canton, Mass.). This instrument, in conjunction with a CORREX® Gram Gage (SPI, Switzerland), measures the force required to loosen nits from a hair shaft and records it on paper.
Laboratory tests were performed to measure the decrease in the combing force required to remove nits from hair strands treated with various compositions of the invention as compared with controls and with prior art egg-loosening compositions.
1. Hair strand 10 with nit 12 attached.
2. Fine tooth plastic nit comb 14.
3. Controls and test compositions.
4. INSTRON® 1123 Universal Testing Instrument 16 (Instron Corp., Canton, Mass.) with a 0-50 kg load cell 18.
5. CORREX® Gram Gage 20-2-15 g with flat tip (SPI, Switzerland).
6. Clamp plate assembly 22.
7. […]
e) Start the Instron, and the force required to loosen the nits will be recorded by the paper chart recorder 30, and can also be read on the Gram Gage 20. […]

[2] = cited from earlier work

CO[C@H]1CO[C@H]2[C@@H]1OC[C@H]2OC [Dimethyl isosorbide, 1,4:3,6 dianhydro-2,5-di-o-methyl-D-glucitol]
nit-loosening effectiveness (in words) [1]: good nit-loosening utility | solubility (in words) [2]: water and oil-soluble
